Positions of bridges follow the written chain, without caps; N, C: chain ends. Residues, ends and D or L forms follow the SMILES beside them. Chains are numbered I, II in the order given. No end group written: not given here. *: point of attachment. Chenodeoxycholyl = C[C@H](CCC(=O)*)[C@H]1CC[C@H]2[C@@H]3[C@H](O)C[C@@H]4C[C@H](O)CC[C@]4(C)[C@H]3CC[C@]12C; Cholyl = C[C@H](CCC(=O)*)[C@H]1CC[C@H]2[C@@H]3[C@H](O)C[C@@H]4C[C@H](O)CC[C@]4(C)[C@H]3C[C@H](O)[C@]12C

Data set [1] deals with JIMT-1 breast cancer cells. In words: Cytotoxicity of steroid acid-peptide conjugates in JIMT-1 cells. In kind it is cell-based. The settings on record: JIMT-1, FIGS. 21A and 21B. The method, then:
(§1) Apoptosis analysis was conducted by flow-cytometry. Briefly, target cells were first treated then washed. Treated cells were then re-suspended in Annexin-V staining buffer prior to staining with Annexin-V and propidium iodine (PI). Fifteen minutes later, cells were washed prior to analysis using BD FACS™ Diva on CANTOII™.
50 mg of CDCA-C-SV40 monomers (or other steroid acid-peptide monomers) were resuspended in 200-500 μL of DMSO. 10 eq of N,N-Diisopropylethylamine (DIPEA) was added to the mixture and incubated in a thermomixer at 37° C. with agitation (1000 rpm) overnight, enabling dimerization of the monomers via their N-terminal cysteine thiol groups to produce (CDCA-C-SV40)2 or other dimers. The samples were then analyzed by UPLC-MS to evaluate dimer formation efficiency. Cell toxicity was evaluated via a Cell Toxicity assay (PrestoBlue™).

The next data set deals with EL4 lymphoma. Kind of data set: EL4 tumor model in mice. In kind it is in vivo, mouse. The settings on record: highest tested dose (190 μM), every 48 h, total of 5 injections. The procedure:
Female C57BL/6 mice (n=10/group) received a SC injection of 5×10^5 EL4 cells at Day 0. […] For all depletion studies, antibodies were injected via the intraperitoneal route at days 0, 3 and 6 at a concentration of 200 μg/injection. Tumor size and animal survival for all of the above listed in vivo studies was followed thereafter using a digital caliber until reaching endpoints (ulceration or a tumor volume ≥1000 mm^3).

The test system of a further data set is EL4 lymphoma cells. In words: Apoptosis analysis / kill curve by flow cytometry (Annexin-V, PI). The data set is classed as cell-based, mouse. The method, then:
as §1
Background: In flow cytometry, cells or beads pass a laser one at a time.

The subject of data set [2] is mesenchymal stromal cells (MSCs). Kind of data set: Apoptosis analysis by flow cytometry on MSCs. The data set is classed as cell-based. As to conditions: 190 μM. The method, then:
as §1

A further data set deals with macrophages. In words: Apoptosis analysis by flow cytometry on macrophages. As to conditions: 190 μM. The data set is classed as cell-based. The method, then: as §1
The test system of data set [3] is bone marrow-derived dendritic cells (DCs). Kind of data set: Apoptosis analysis by flow cytometry on bone marrow-derived dendritic cells. The data set is classed as cell-based, mouse. As to conditions: 190 μM. The procedure:
Mouse bone marrow derived DCs (BMDCs) were generated by flushing the whole marrow from mouse femurs using RPMI™ 1640 supplemented with 10% fetal bovine serum (FBS), 50 U/mL Penicillin-Streptomycin, 2 mM L-glutamine, 10 mM HEPES, 1% MEM Non-essential Amino Acids, 1 mM Sodium Pyruvate, 0.5 mM β-mercaptoethanol. Following red blood cell lysis, cells were then cultured in media supplemented with 50 ng/mL murine recombinant GM-CSF. The media was changed on days 2, 4, 6 and 8. On day 9, the media was replaced to include recombinant murine GM-CSF and LPS from Escherichia coli 0111 (1 ng/mL) to stimulate DC maturation. Mature DCs were assessed by flow cytometry for their surface expression of CD3, CD19, NK1.1, CD11c, CD80, CD86, and I-A^b.
as §1

Data set [4] concerns EL4, B16, E0771, CT-26, 4T1, MBA-MD-468, H460 and A549 cancer cells. Kind of data set: Annexin-V cytotoxicity screen of bile acid-SV40 conjugates on eight tumor cell lines. The settings on record: 190 μM, all eight tumor cell lines. In kind it is cell-based. The procedure:
Annexin-V staining percentage after treatment with different bile acid-SV40 conjugates (190 μM) is shown relative to live cancer cells (i.e., PBS treated cancer cells) by flow cytometry. Cancer cell lines tested were EL4 lymphoma, B16 melanoma, E0771 breast cancer, CT-26 colon carcinoma, 4T1 breast cancer, MBA-MD-468 triple-negative breast cancer, human H460 lung cancer, and human A549 lung cancer. […] SV40 alone was also tested as a negative control.
as §1

The subject of data set [5] is wild-type MSC and B3Z reporter system. In words: Antigen cross-presentation, wild-type MSC and B3Z reporter system. As to conditions: 50 μM, sample stored 3 months at −80° C. (thawed).

Turning to `CC(C)[C@H](NC(=O)[C@H](CCCCN)NC(=O)CNC(=O)[C@H](Cc1ccc(O)cc1)NC(=O)CNC(=O)[C@H](CO)NC(=O)[C@H](CSSC[C@H](NC(=O)CC[C@@H](C)[C@H]1CC[C@H]2[C@@H]3[C@H](O)C[C@@H]4C[C@H](O)CC[C@]4(C)[C@H]3CC[C@]12C)C(=O)N[C@@H](CO)C(=O)NCC(=O)N[C@@H](Cc1ccc(O)cc1)C(=O)NCC(=O)N[C@@H](CCCCN)C(=O)N[C@H](C(=O)N[C@@H](CO)C(=O)N[C@@H](CCCNC(=N)N)C(=O)N[C@@H](CCCNC(=N)N)C(=O)NCC(=O)NCC(=O)N[C@@H](Cc1c[nH]cn1)C(=O)N[C@@H](CCC(N)=O)C(=O)N[C@@H](CC(N)=O)C(=O)N[C@@H](CO)C(=O)N[C@@H](Cc1ccc(O)cc1)C(=O)N[C@@H](CCCCN)C(=O)N1CCC[C@H]1C(=O)N[C@@H](Cc1ccc(O)cc1)C(=O)O)C(C)C)NC(=O)CC[C@@H](C)[C@H]1CC[C@H]2[C@@H]3[C@H](O)C[C@@H]4C[C@H](O)CC[C@]4(C)[C@H]3CC[C@]12C)C(=O)N[C@@H](CO)C(=O)N[C@@H](CCCNC(=N)N)C(=O)N[C@@H](CCCNC(=N)N)C(=O)NCC(=O)NCC(=O)N[C@@H](Cc1c[nH]cn1)C(=O)N[C@@H](CCC(N)=O)C(=O)N[C@@H](CC(N)=O)C(=O)N[C@@H](CO)C(=O)N[C@@H](Cc1ccc(O)cc1)C(=O)N[C@@H](CCCCN)C(=O)N1CCC[C@H]1C(=O)N[C@@H](Cc1ccc(O)cc1)C(=O)O` [(CDCA-C-hnRNP D NLS)2] (I: Chenodeoxycholyl-CSGYGKVSRRGGHQNSYKPY-OH / II: Chenodeoxycholyl-CSGYGKVSRRGGHQNSYKPY-OH; disulfide I:1-II:1), the “cytotoxicity of dimerized version versus monomer” value in data set [1] was “enhancement of cytotoxicity”.

Consider `CSCC[C@H](NC(=O)[C@H](CS)NC(=O)CC[C@@H](C)[C@H]1CC[C@H]2[C@@H]3[C@H](O)C[C@@H]4C[C@H](O)CC[C@]4(C)[C@H]3C[C@H](O)[C@]12C)C(=O)NCC(=O)N[C@@H](CCCNC(=N)N)C(=O)N[C@H](C(=O)N[C@@H](CCCNC(=N)N)C(=O)N[C@H](C(=O)N[C@@H](CCCCN)C(=O)N[C@H](C(=O)N[C@H](C(=O)N[C@@H](CCCCN)C(=O)N[C@@H](CCCCN)C(=O)N[C@@H](C)C(=O)N[C@@H](C)C(=O)NCC(=O)NCC(=O)O)C(C)C)[C@@H](C)O)[C@@H](C)O)C(C)C` [CA-C-NLS1 RPS17] (Cholyl-CMGRVRTKTVKKAAGG-OH; N-terminus and C-terminus assumed), for which, in the data set with EL4 lymphoma, the “survival at day 40” value was found to be 20% and the tumor growth entry is on record as “significantly delayed tumor growth”.

Turning to `CC[C@H](C)[C@H](NC(=O)[C@H](CCCNC(=N)N)NC(=O)[C@H](CCCCN)NC(=O)[C@H](CCSC)NC(=O)[C@H](CC(C)C)NC(=O)[C@H](Cc1c[nH]cn1)NC(=O)[C@@H](NC(=O)[C@@H](NC(=O)[C@H](Cc1ccc(O)cc1)NC(=O)CNC(=O)[C@H](C)NC(=O)[C@@H](NC(=O)[C@H](CCCCN)NC(=O)[C@H](CC(N)=O)NC(=O)[C@H](CCCNC(=N)N)NC(=O)[C@H](CC(C)C)NC(=O)[C@H](CCCCN)NC(=O)[C@H](CCCCN)NC(=O)[C@H](CO)NC(=O)[C@H](CS)NC(=O)CC[C@@H](C)[C@H]1CC[C@H]2[C@@H]3[C@H](O)C[C@@H]4C[C@H](O)CC[C@]4(C)[C@H]3C[C@H](O)[C@]12C)[C@@H](C)CC)C(C)C)[C@@H](C)O)C(=O)O` [CA-C-NLS3 RPS17] (Cholyl-CSKKLRNKIAGYVTHLMKRI-OH; N-terminus and C-terminus assumed), in the data set with EL4 lymphoma, the “survival at day 40” value is listed as 20% and the tumor growth entry is “significantly delayed tumor growth”.

As to `CC(C)[C@H](NC(=O)[C@H](CCCCN)NC(=O)[C@H](CCCNC(=N)N)NC(=O)[C@H](CCCCN)NC(=O)[C@H](CCCCN)NC(=O)[C@H](CCCCN)NC(=O)[C@@H]1CCCN1C(=O)CNC(=O)[C@H](Cc1ccc(O)cc1)NC(=O)CNC(=O)[C@H](CS)NC(=O)CC[C@@H](C)[C@H]1CC[C@H]2[C@@H]3[C@H](O)C[C@@H]4C[C@H](O)CC[C@]4(C)[C@H]3C[C@H](O)[C@]12C)C(=O)NCC(=O)NCC(=O)O` [CA-C-SV40] (Cholyl-CGYGPKKKRKVGG-OH), in the data set on EL4 lymphoma cells (190 μM, EL4, FIG. 6), the “cytotoxicity of Cholic acid-NLS conjugates” value is “notably higher”. Further, the EC50 with EL4 lymphoma cells (EL4 lymphoma cells, flow cytometry, read-out: EC50 (cell death / kill curve)) is 95.9 µM. Also, the “apoptosis in normal or healthy cells” value (in data set [2]; in the data set with macrophages; in data set [3]) was “induce apoptosis” throughout. Besides, the “survival at day 40” value in the data set with EL4 lymphoma is recorded as 60%.

As to `CC(C)[C@H](NC(=O)[C@H](CCCCN)NC(=O)[C@H](CCCNC(=N)N)NC(=O)[C@H](CCCCN)NC(=O)[C@H](CCCCN)NC(=O)[C@H](CCCCN)NC(=O)[C@@H]1CCCN1C(=O)CNC(=O)[C@H](Cc1ccc(O)cc1)NC(=O)CNC(=O)[C@H](CS)NC(=O)CC[C@@H](C)[C@H]1CC[C@H]2[C@@H]3[C@H](O)C[C@@H]4C[C@H](O)CC[C@]4(C)[C@H]3CC[C@]12C)C(=O)NCC(=O)NCC(=O)O` [CDCA-C-SV40] (Chenodeoxycholyl-CGYGPKKKRKVGG-OH), the cytotoxic activity in data set [4] amounted to 100%.

Take `CC(=O)N[C@@H](CS)C(=O)O` [NAC, N-acetylcysteine, reference compound]: the “rescue from CA-C-SV40-triggered cell death” value with EL4 lymphoma cells (CA-C-SV40 at EC50 dose) is reported as “completely blocked apoptosis”.

As for “CA-C-hnRNPA1: cholic acid conjugated to C-hnRNPA1 M9 NLS peptide (SEQ ID NO: 4) (Cholyl-CSNFGPMKGGNFGGRSSGPY)”, the antigen presentation result in data set [5] is on record as “reduced antigen presentation activity”.

With “SV40 NLS: nuclear localization signal from SV40 large T-antigen (PKKKRKV; SEQ ID NO: 2), tested alone as negative control [reference compound]”, in the data set with EL4 lymphoma cells, the cytotoxic activity result is reported as “did not exhibit any cytotoxic activity”.

Values taken from patent US20260207765A1, “COVALENTLY-MODIFIED STEROID ACID-PEPTIDES HAVING ENHANCED STABILITY AND/OR BIOLOGICAL ACTIVITY” (priority 2022, published 2026).
